# Assay results reported in patent US6521751B1, “Recombinant nucleic acid sequences and methods for determining both genotoxicity and mutagenicity of a sample and the kinetics of the genotoxicity” (Vlaamse Instelling voor Technologisch Onderzoek (VITO), priority 1998, dated 2003).
# “And” between values parts separate entries of the source, which are not always exact repeats. Equal values may be shown once. Read-outs that look alike come from different tables or passages of the source.
# Tests used:
# [1] = test system: S. typhimurium TA1538* containing pMOL890
# [2] = test system: S. typhimurium TA104 containing pMOL1068; conditions: TA104 pMOL1068
# [3] = test system: S. typhimurium TA104 containing pMOL1069; conditions: TA104 pMOL1069
# S. typhimurium = conditions: cited from earlier work
# [4] = test system: TA98 and TA104 containing pMOL1067; assay: Induction kinetics with pMOL1067; assay type: cell-based, S. typhimurium
# Description: The reaction of the different constructs when more than one genotoxic product is present in the test sample. was examined. This is an important aspect, since environmental samples often contain more than one genotoxic pollutant. Also in this regard many pharmaceutical products that have to be tested for genotoxicity can be a combination of different active genotoxic substances (e.g. anticancer or anti AIDS drugs). The experiments were performed with TA98 and TA104 containing either pMOL1067 or pMOL890. These two constructs were chosen since they show similar induction kinetics and the best signal/noise ratio's in S. typhimurium (see FIG. 7 and FIG. 8). As test products, several combinations of MMS and novobiocine were taken. These products were used since they were found by us to have different induction kinetics (e.g., with pMOL1067 MMS gives a maximum after 2 hours, while the maximal signal/noise ratio with novobiocine is observed after 4 hours).
# [5] = test system: S. typhimurium TA104 containing pMOL890; conditions: TA104 pMOL890
# [6] = test system: S. typhimurium TA104* containing pMOL890
# [7] = test system: S. typhimurium TA98 containing pMOL1068; conditions: TA98 pMOL1068
# E. coli (sfiA-lacZ) = conditions: cited from earlier work; for SOS (result) / MINIMAL DETECTED CONCENTRATION (MDC): SOS chromotest; for SOS (result): Table 3; for MINIMAL DETECTED CONCENTRATION (MDC): literature values
# [8] = test system: S. typhimurium TA98* containing pMOL890
# [9] = test system: S. typhimurium TA100* containing pMOL890
# [10] = test system: S. typhimurium TA98 containing pMOL890; conditions: TA98 pMOL890
# [11] = test system: S. typhimurium TA104 containing pMOL1066; conditions: TA104 pMOL1066
# [12] = test system: TA 98 and TA104 strains containing pMOL1067 or pMOL1068; conditions: TA 98 and TA104 strains containing pMOL1067 or pMOL1068
# [13] = test system: S. typhimurium TA104 containing pMOL1067; conditions: TA104 pMOL1067
# [14] = test system: S. typhimurium TA98 containing pMOL1067; conditions: TA98 pMOL1067
# [15] = test system: S. typhimurium TA1535* containing pMOL890
# [16] = test system: novel biosensor systems in E. coli and in S. typhimurium strains; assay: Subject SOS promoter-lux systems (general statements); conditions: agents known to give false negative results in the SOS chromotest and the Ames test
# [17] = test system: TA98 and TA104 strains containing pMOL890, pMOL1067 or pMOL1068; assay: Test with the TA98 and TA104 strains containing pMOL890, pMOL1067 or pMOL1068
structure (smiles),measurement,setting,value
"COS(C)(=O)=O [MMS, Methylmethanesulphonate]",Number of His^+ revertants,[1]; MMS 0.1 μl,36 and 28
same,Number of His^+ revertants,[1]; MMS 0.2 μl,28 and 27
same,Number of His^+ revertants,[1]; MMS 1 μl,27 and 29
same,MINIMAL DETECTED CONCENTRATION (MDC),[2],7.3 nmol/assay
same,Number of His^+ revertants,S. typhimurium TA100; MMS 0.1 μl,344 and 392
same,Number of His^+ revertants,S. typhimurium TA100; MMS 0.2 μl,604 and 560
same,Number of His^+ revertants,S. typhimurium TA100; MMS 1 μl,1120 and 1282
same,MINIMAL DETECTED CONCENTRATION (MDC),[3],7.3 nmol/assay
same,AMES (result),S. typhimurium,pos
same,MINIMAL DETECTED CONCENTRATION (MDC),S. typhimurium,60 nmol/assay
same,time of maximal signal/noise ratio,[4],2 h
same,Conclusion (Ames test),S. typhimurium TA98,−
same,MINIMAL DETECTED CONCENTRATION (MDC),[5],7.3 nmol/assay
same,Number of His^+ revertants,[6]; MMS 0.1 μl,224 and 218
same,Number of His^+ revertants,[6]; MMS 0.2 μl,428 and 325
same,Number of His^+ revertants,[6]; MMS 1 μl,672 and 724
same,MINIMAL DETECTED CONCENTRATION (MDC),[7],7.3 nmol/assay
same,Conclusion (Ames test),S. typhimurium TA1538,−
same,SOS (result),E. coli (sfiA-lacZ),pos
same,MINIMAL DETECTED CONCENTRATION (MDC),E. coli (sfiA-lacZ),20 nmol/assay
same,Number of His^+ revertants,[8]; MMS 0.1 μl,25 and 27
same,Number of His^+ revertants,[8]; MMS 0.2 μl,26 and 28
same,Number of His^+ revertants,[8]; MMS 1 μl,22 and 27
same,Conclusion (Ames test),S. typhimurium TA104,+
same,Number of His^+ revertants,[9]; MMS 0.1 μl,160 and 152
same,Number of His^+ revertants,[9]; MMS 0.2 μl,242 and 314
same,Number of His^+ revertants,[9]; MMS 1 μl,536 and 528
same,MINIMAL DETECTED CONCENTRATION (MDC),[10],7.3 nmol/assay
same,Number of His^+ revertants,S. typhimurium TA1535; MMS 0.1 μl,27 and 18
same,Number of His^+ revertants,S. typhimurium TA1535; MMS 0.2 μl,23 and 24
same,Number of His^+ revertants,S. typhimurium TA1535; MMS 1 μl,27 and 38
same,MINIMAL DETECTED CONCENTRATION (MDC),[11],7.3 nmol/assay
same,"OUTCOME (genotoxicity, final outcome)",[12],pos
same,MINIMAL DETECTED CONCENTRATION (MDC),[13],7.3 nmol/assay
same,MINIMAL DETECTED CONCENTRATION (MDC),[14],7.3 nmol/assay
same,Number of His^+ revertants,[15]; MMS 0.1 μl,32
same,Number of His^+ revertants,[15]; MMS 0.2 μl,24
same,Number of His^+ revertants,[15]; MMS 1 μl,29 and 26
CO[C@@H]1[C@@H](OC(N)=O)[C@@H](O)[C@H](Oc2ccc3c(O)c(NC(=O)c4ccc(O)c(CC=C(C)C)c4)c(=O)oc3c2C)OC1(C)C [novobiocine],MINIMAL DETECTED CONCENTRATION (MDC),[2],1.26 nmol/assay
same,result in the novel systems according to the invention,[16],positive
same,MINIMAL DETECTED CONCENTRATION (MDC),[3],0.32 nmol/assay
same,MINIMAL DETECTED CONCENTRATION (MDC),"S. typhimurium; AMES, literature values, pos/neg where MDC could not be calculated",pos
same,AMES (result),"S. typhimurium; Ames test, Table 3",pos
same,time of maximal signal/noise ratio,[4],4 h
same,MINIMAL DETECTED CONCENTRATION (MDC),[5],1.26 nmol/assay
same,MINIMAL DETECTED CONCENTRATION (MDC),[7],0.63 nmol/assay
same,SOS (result),E. coli (sfiA-lacZ),neg
same,MINIMAL DETECTED CONCENTRATION (MDC),E. coli (sfiA-lacZ),neg
same,result in the SOS chromotest,E. coli (sfiA-lacZ); text b126,negative
same,MINIMAL DETECTED CONCENTRATION (MDC),[10],0.57 nmol/assay
same,MINIMAL DETECTED CONCENTRATION (MDC),[11],1.26 nmol/assay
same,"OUTCOME (genotoxicity, final outcome)",[12],pos
same,result in the test (genotoxicity),[17],positive
same,MINIMAL DETECTED CONCENTRATION (MDC),[13],0.32 nmol/assay
same,MINIMAL DETECTED CONCENTRATION (MDC),[14],0.079 nmol/assay
